Reference: patent US9932637B2, “Genetic polymorphisms associated with cardiovascular disorders and drug response, methods of detection and uses thereof” (CELERA CORPORATION, priority 2003, dated 2018)

System: patients with prior myocardial infarction (CARE study)
Experiment: CARE: association of SNPs with pravastatin treatment in cardiovascular events prevention (logistic regression, odds ratio pravastatin vs placebo by genotype; Table 8)
Type: in vivo, human
Excerpt: In order to identify genetic markers associated with acute coronary events (e.g. MI, stroke, unstable angina, congestive heart failure, etc.) or response to statin treatment for the prevention of coronary events, samples from the Cholesterol and Recurrent Events (CARE) study (a randomized multicentral double-blinded trial on secondary prevention of acute coronary events with pravastatin) (Sacks et al., 1991, Am. J. Cardiol. 68: 1436-1446) were genotyped. A well-documented myocardial infarction (MI) was one of the enrollment criteria for entry into the CARE study. Patients were enrolled in the CARE trial from 80 participating study centers. […] Patients were randomized to receive either 40 mg of pravastatin once daily or a matching placebo. The primary endpoint of the trial was death from coronary heart disease and the median duration of follow-up was 5.0 years (range, 4.0 to 6.2 years). […] Secondary endpoints of other related cardiovascular or metabolic disease events, and changes in clinical variables were also recorded in pravastatin-treated and placebo groups. All individuals included in the study had signed a written informed consent form and the study protocol was approved by the respective Institutional Review Boards (IRBs).
For genotyping SNPs in CARE patient samples, DNA was extracted from blood samples using conventional DNA extraction methods such as the QIA-amp kit from Qiagen. Genotypes were obtained on an ABI PRISM® 7900HT Sequence Detection PCR system (Applied Biosystems, Foster City, Calif.) by kinetic allele-specific PCR, similar to the method described by Germer et al. (Germer S., Holland M. J., Higuchi R. 2000, Genome Res. 10: 258-266).
Statistical analysis for association of SNPs with pravastatin treatment in cardiovascular events prevention (Table 8) was carried out using an overall logistic regression model that included an intercept, a parameter for the effect of a genotype containing two rare alleles versus a genotype containing no rare alleles, a parameter for the effect of a genotype containing one rare allele versus a genotype containing no rare alleles, a parameter for the effect of use of pravastatin versus the use of placebo, and parameters for the interaction effects between SNP genotypes and pravastatin use. The test of the overall model is a chi-square test with two degrees of freedom for analyses containing all three genotypes, and one degree of freedom for analyses containing two genotypes.
Effect sizes were estimated through odds ratios (pravastatin group versus placebo) for carriers of each genotype (groups of 0, 1, and 2 minor allele carriers). The effect was considered to be significant if p-value for testing whether any of the interactions between SNP genotypes and pravastatin use were <0.05. […] Odds ratios less than one indicate that the specific SNP allele has a protective effect and odds ratios greater than one indicate that the specific SNP allele has an adverse effect.

[1] = IL9 hCV3275199, All Patients, 0 Rare Alleles, Prava arm
[2] = IL9 hCV3275199, All Patients, 1 Rare Allele, Prava arm
[3] = IL9 hCV3275199, All Patients, 2 Rare Alleles, Prava arm
[4] = IL12A hCV16053900, All Patients, 0 Rare Alleles, Prava arm
[5] = IL12A hCV16053900, All Patients, 1 Rare Allele, Prava arm
[6] = IL12A hCV16053900, All Patients, 2 Rare Alleles, Prava arm
[7] = KLK14 hCV16044337, All Patients, 0 Rare Alleles, Prava arm
[8] = KLK14 hCV16044337, All Patients, 1 Rare Allele, Prava arm
[9] = KLK14 hCV16044337, All Patients, 2 Rare Alleles, Prava arm
[10] = LAMA5 hCV25629492, All Patients, 0 Rare Alleles, Prava arm
[11] = LAMA5 hCV25629492, All Patients, 1 Rare Allele, Prava arm
[12] = LAMA5 hCV25629492, All Patients, 2 Rare Alleles, Prava arm
[13] = LRP8 hCV190754, All Patients, Hosp. for Unstable Angina
[14] = MARK3 hCV25926771, All Patients, 0 Rare Alleles, Prava arm
[15] = MARK3 hCV25926771, All Patients, 1 Rare Allele, Prava arm
[16] = MJD hCV16189421, All Patients, 0 Rare Alleles, Prava arm

SMILES: CC[C@H](C)C(=O)O[C@H]1C[C@H](O)C=C2C=C[C@H](C)[C@H](CC[C@@H](O)C[C@@H](O)CC(=O)O)[C@H]21 [pravastatin]
- Nonfatal MI (Probable/Definite), n/total (%) [1]: (10.4%)
- Nonfatal MI (def & prob), n/total (%) [1]: (9.8%)
- Fatal/Nonfatal MI (def & prob), n/total (%) [2]: (6.0%)
- MI (Fatal/Nonfatal), n/total (%) [2]: (6.0%)
- Nonfatal MI (Probable/Definite), n/total (%) [2]: (5.7%)
- Nonfatal MI (def & prob), n/total (%) [2]: (5.7%)
- Fatal/Nonfatal MI (def & prob), n/total (%) [3]: (6.1%)
- MI (Fatal/Nonfatal), n/total (%) [3]: (6.1%)
- Nonfatal MI (Probable/Definite), n/total (%) [3]: (6.1%)
- Nonfatal MI (def & prob), n/total (%) [3]: (6.1%)
- Coronary Artery Bypass Graft, n/total (%) [4]: (4.9%)
- Coronary Artery Bypass or Revascularization, n/total (%) [4]: (11.0%)
- Coronary Artery Bypass Graft, n/total (%) [5]: (8.9%)
- Coronary Artery Bypass or Revascularization, n/total (%) [5]: (16.2%)
- Coronary Artery Bypass Graft, n/total (%) [6]: (7.2%)
- Coronary Artery Bypass or Revascularization, n/total (%) [6]: (14.8%)
- Coronary Artery Bypass Graft, n/total (%) [7]: (8.7%)
- Definite Nonfatal MI, n/total (%) [7]: (7.1%)
- Fatal CHD/Definite Nonfatal MI, n/total (%) [7]: (9.5%)
- Fatal/Nonfatal MI (def & prob), n/total (%) [7]: (9.8%)
- MI (Fatal/Nonfatal), n/total (%) [7]: (10.1%)
- Nonfatal MI (Probable/Definite), n/total (%) [7]: (9.7%)
- Nonfatal MI (def & prob), n/total (%) [7]: (9.1%)
- Coronary Artery Bypass Graft, n/total (%) [8]: (6.2%)
- Definite Nonfatal MI, n/total (%) [8]: (7.2%)
- Fatal CHD/Definite Nonfatal MI, n/total (%) [8]: (9.9%)
- Fatal/Nonfatal MI (def & prob), n/total (%) [8]: (10.0%)
- MI (Fatal/Nonfatal), n/total (%) [8]: (10.2%)
- Nonfatal MI (Probable/Definite), n/total (%) [8]: (9.4%)
- Nonfatal MI (def & prob), n/total (%) [8]: (9.1%)
- Coronary Artery Bypass Graft, n/total (%) [9]: (5.6%)
- Definite Nonfatal MI, n/total (%) [9]: (4.4%)
- Fatal CHD/Definite Nonfatal MI, n/total (%) [9]: (5.6%)
- Fatal/Nonfatal MI (def & prob), n/total (%) [9]: (6.9%)
- MI (Fatal/Nonfatal), n/total (%) [9]: (6.9%)
- Nonfatal MI (Probable/Definite), n/total (%) [9]: (6.3%)
- Nonfatal MI (def & prob), n/total (%) [9]: (6.3%)
- Definite Nonfatal MI, n/total (%) [10]: (8.8%)
- Fatal/Nonfatal MI (def & prob), n/total (%) [10]: (12.1%)
- Nonfatal MI (def & prob), n/total (%) [10]: (11.3%)
- Definite Nonfatal MI, n/total (%) [11]: (5.4%)
- Fatal/Nonfatal MI (def & prob), n/total (%) [11]: (7.7%)
- Nonfatal MI (def & prob), n/total (%) [11]: (7.4%)
- Definite Nonfatal MI, n/total (%) [12]: (4.1%)
- Fatal/Nonfatal MI (def & prob), n/total (%) [12]: (7.7%)
- Nonfatal MI (def & prob), n/total (%) [12]: (5.4%)
- Hosp. for Unstable Angina, n/total (%) (LRP8 hCV190754, All Patients, 0 Rare Alleles, Prava, n/total 98/560): (17.5%)
- Hosp. for Unstable Angina, n/total (%) (LRP8 hCV190754, All Patients, 1 Rare Allele, Prava, n/total 100/712): (14.0%)
- Hosp. for Unstable Angina, n/total (%) (LRP8 hCV190754, All Patients, 2 Rare Alleles, Prava, n/total 32/244): (13.1%)
- Prava vs. Placebo Odds Ratio, 0 Rare Alleles [13]: 1.21
- Prava vs. Placebo Odds Ratio, 1 Rare Alleles [13]: 0.70
- Prava vs. Placebo Odds Ratio, 2 Rare Alleles [13]: 0.54
- Definite Nonfatal MI, n/total (%) [14]: (6.7%)
- Fatal CHD/Definite Nonfatal MI, n/total (%) [14]: (9.9%)
- Definite Nonfatal MI, n/total (%) [15]: (7.0%)
- Fatal CHD/Definite Nonfatal MI, n/total (%) [15]: (9.1%)
- Fatal/Nonfatal MI (def & prob), n/total (%) [16]: (8.4%)
- Hosp. for Unstable Angina, n/total (%) [16]: (14.4%)
